According to paper PMC4413193, “3-[4-(1H-Indol-3-yl)-1,3-thiazol-2-yl]-1H-pyrrolo[2,3-b]pyridines, Nortopsentin Analogues with Antiproliferative Activity” (Marine Drugs, 2015):

Legend:
CCRF-CEM = assay: NCI-60 in vitro tumor cell growth inhibition, CCRF-CEM (leukemia); format: cell-based; settings: Homo sapiens, five concentration levels 10^−4–10^−8 M
Experimental: (§1) All the synthesized thiazoles 3a–k were evaluated by the National Cancer Institute (Bethesda MD) for cytotoxicity against the NCI-60 cell line panel using standard protocols. Initially, the selected derivatives 3c,d,g,h,j,k were tested at a single dose (10^−5 M) on the full panel of approximately 60 human tumor cell lines derived from 9 human cancer cell types, that have been grouped in disease sub-panels including leukemia, non-small-cell lung, colon, central nervous system (CNS), melanoma, ovarian, renal, prostate and breast cancers (data not shown). Compounds 3d and 3k were further selected for full evaluation at five concentration levels (10^−4–10^−8 M).
(§2) The antitumor activity of compounds 3d and 3k was given by three parameters for each cell line: GI50 (the molar concentration of the compound that inhibits 50% net cell growth), TGI (the molar concentration of the compound leading to total inhibition of net cell growth), and LC50 (the molar concentration of the compound that induces 50% net cell death). The average values of mean graph midpoint (MG_MID) were calculated for each of these parameters.

K-562 = assay: NCI-60 in vitro tumor cell growth inhibition, K-562 (leukemia); format: cell-based; settings: Homo sapiens, K562, five concentration levels 10^−4–10^−8 M
Experimental: as §1, §2

RPMI-8226 = assay: NCI-60 in vitro tumor cell growth inhibition, RPMI-8226 (leukemia); format: cell-based; settings: Homo sapiens, five concentration levels 10^−4–10^−8 M
Experimental: as §1, §2

SR = assay: NCI-60 in vitro tumor cell growth inhibition, SR (leukemia); format: cell-based; settings: Homo sapiens, five concentration levels 10^−4–10^−8 M
Experimental: as §1, §2

A549/ATCC = assay: NCI-60 in vitro tumor cell growth inhibition, A549/ATCC (non-small cell lung cancer); format: cell-based; settings: Homo sapiens, five concentration levels
Experimental: as §1, §2

EKVK = assay: NCI-60 in vitro tumor cell growth inhibition, EKVK (non-small cell lung cancer); format: cell-based; settings: Homo sapiens, five concentration levels
Experimental: as §1, §2

NCI-H226 = assay: NCI-60 in vitro tumor cell growth inhibition, NCI-H226 (non-small cell lung cancer); format: cell-based; settings: Homo sapiens, five concentration levels
Experimental: as §1, §2

NCI-H23 = assay: NCI-60 in vitro tumor cell growth inhibition, NCI-H23 (non-small cell lung cancer); format: cell-based; settings: Homo sapiens, five concentration levels
Experimental: as §1, §2

NCI-H460 = assay: NCI-60 in vitro tumor cell growth inhibition, NCI-H460 (non-small cell lung cancer); format: cell-based; settings: Homo sapiens, five concentration levels
Experimental: as §1, §2

NCI-H522 = assay: NCI-60 in vitro tumor cell growth inhibition, NCI-H522 (non-small cell lung cancer); format: cell-based; settings: Homo sapiens, five concentration levels
Experimental: as §1, §2

COLO-205 = assay: NCI-60 in vitro tumor cell growth inhibition, COLO-205 (colon cancer); format: cell-based; settings: Homo sapiens, five concentration levels
Experimental: as §1, §2

HCT-116 = assay: NCI-60 in vitro tumor cell growth inhibition, HCT-116 (colon cancer); format: cell-based; settings: Homo sapiens, five concentration levels
Experimental: as §1, §2

HT29 = assay: NCI-60 in vitro tumor cell growth inhibition, HT29 (colon cancer); format: cell-based; settings: Homo sapiens, HT-29, five concentration levels
Experimental: as §1, §2

SW-620 = assay: NCI-60 in vitro tumor cell growth inhibition, SW-620 (colon cancer); format: cell-based; settings: Homo sapiens, five concentration levels
Experimental: as §1, §2

SF-268 = assay: NCI-60 in vitro tumor cell growth inhibition, SF-268 (CNS cancer); format: cell-based; settings: Homo sapiens, five concentration levels
Experimental: as §1, §2

SF-539 = assay: NCI-60 in vitro tumor cell growth inhibition, SF-539 (CNS cancer); format: cell-based; settings: Homo sapiens, five concentration levels
Experimental: as §1, §2

SNB-19 = assay: NCI-60 in vitro tumor cell growth inhibition, SNB-19 (CNS cancer); format: cell-based; settings: Homo sapiens, five concentration levels
Experimental: as §1, §2

LOX IMVI = assay: NCI-60 in vitro tumor cell growth inhibition, LOX IMVI (melanoma); format: cell-based; settings: Homo sapiens, five concentration levels
Experimental: as §1, §2

M14 = assay: NCI-60 in vitro tumor cell growth inhibition, M14 (melanoma); format: cell-based; settings: Homo sapiens, five concentration levels
Experimental: as §1, §2

MDA-MB-435 = assay: NCI-60 in vitro tumor cell growth inhibition, MDA-MB-435 (melanoma); format: cell-based; settings: Homo sapiens, five concentration levels
Experimental: as §1, §2

SK-MEL-2 = assay: NCI-60 in vitro tumor cell growth inhibition, SK-MEL-2 (melanoma); format: cell-based; settings: Homo sapiens, five concentration levels
Experimental: as §1, §2

UACC-257 = assay: NCI-60 in vitro tumor cell growth inhibition, UACC-257 (melanoma); format: cell-based; settings: Homo sapiens, five concentration levels
Experimental: as §1, §2

IGROV1 = assay: NCI-60 in vitro tumor cell growth inhibition, IGROV1 (ovarian cancer); format: cell-based; settings: Homo sapiens, IGROV-1, five concentration levels
Experimental: as §1, §2

OVCAR-3 = assay: NCI-60 in vitro tumor cell growth inhibition, OVCAR-3 (ovarian cancer); format: cell-based; settings: Homo sapiens, five concentration levels
Experimental: as §1, §2

OVCAR-5 = assay: NCI-60 in vitro tumor cell growth inhibition, OVCAR-5 (ovarian cancer); format: cell-based; settings: Homo sapiens, five concentration levels
Experimental: as §1, §2

OVCAR-8 = assay: NCI-60 in vitro tumor cell growth inhibition, OVCAR-8 (ovarian cancer); format: cell-based; settings: Homo sapiens, five concentration levels
Experimental: as §1, §2

NCI/ADR-RES = assay: NCI-60 in vitro tumor cell growth inhibition, NCI/ADR-RES (ovarian cancer); format: cell-based; settings: Homo sapiens, five concentration levels
Experimental: as §1, §2

A498 = assay: NCI-60 in vitro tumor cell growth inhibition, A498 (renal cancer); format: cell-based; settings: Homo sapiens, five concentration levels
Experimental: as §1, §2

CAKI-1 = assay: NCI-60 in vitro tumor cell growth inhibition, CAKI-1 (renal cancer); format: cell-based; settings: Homo sapiens, five concentration levels
Experimental: as §1, §2

RXF393 = assay: NCI-60 in vitro tumor cell growth inhibition, RXF393 (renal cancer); format: cell-based; settings: Homo sapiens, RXF 393, five concentration levels
Experimental: as §1, §2

TK-10 = assay: NCI-60 in vitro tumor cell growth inhibition, TK-10 (renal cancer); format: cell-based; settings: Homo sapiens, five concentration levels
Experimental: as §1, §2

PC-3 = assay: NCI-60 in vitro tumor cell growth inhibition, PC-3 (prostate cancer); format: cell-based; settings: Homo sapiens, five concentration levels
Experimental: as §1, §2

DU-145 = assay: NCI-60 in vitro tumor cell growth inhibition, DU-145 (prostate cancer); format: cell-based; settings: Homo sapiens, five concentration levels
Experimental: as §1, §2

MCF7 = assay: NCI-60 in vitro tumor cell growth inhibition, MCF7 (breast cancer); format: cell-based; settings: Homo sapiens, five concentration levels
Experimental: as §1, §2

HS 578T = assay: NCI-60 in vitro tumor cell growth inhibition, HS 578T (breast cancer); format: cell-based; settings: Homo sapiens, five concentration levels
Experimental: as §1, §2

BT-549 = assay: NCI-60 in vitro tumor cell growth inhibition, BT-549 (breast cancer); format: cell-based; settings: Homo sapiens, five concentration levels
Experimental: as §1, §2

MDA-MB-468 = assay: NCI-60 in vitro tumor cell growth inhibition, MDA-MB-468 (breast cancer); format: cell-based; settings: Homo sapiens, five concentration levels
Experimental: as §1, §2

HepG2 cells = assay: Acridine orange/ethidium bromide morphological staining; format: cell-based, human; settings: HepG2, 24 h, at GI50 concentration
Description: To confirm apoptotic mechanism of cytotoxicity of the nortopsentin analogues, we carried out morphological evaluation of HepG2 cells using AO and EB double staining. […] Moreover, fluorescing orange cells owing to increase of cell permeability to ethidium bromide, cell shrinkage and nuclear fragmentation were also evident as cells in late apoptosis (Figure 3B). Taken together, these findings provided strong evidence that the synthesized nortopsentin analogues induced apoptosis in HepG2 cells.
Acridine orange (AO) stains DNA bright green, allowing visualization of the nuclear chromatin pattern and stains both live and dead cells. Ethidium bromide (EB) stains DNA orange but is excluded by viable cells. Dual staining allows separate enumeration of populations of viable non-apoptotic, viable (early) apoptotic, nonviable (late) apoptotic, and necrotic cells. Live cells appear uniformly green. […] Late apoptotic cells incorporate EB and therefore stain orange, but, in contrast to necrotic cells, the late apoptotic cells show condensed and often fragmented nuclei. Necrotic cells stain orange, but have a nuclear morphology resembling that of viable cells, with no condensed chromatin. Briefly, after HepG2 cells were treated with 3d or 3k compounds for 24 h, the medium was discarded. […]

SMILES	GI50 (CCRF-CEM)	GI50 (K-562)	GI50 (RPMI-8226)	GI50 (SR)	GI50 (A549/ATCC)	GI50 (EKVK)	GI50 (NCI-H226)	GI50 (NCI-H23)	GI50 (NCI-H460)	GI50 (NCI-H522)	GI50 (COLO-205)	GI50 (HCT-116)	GI50 (HT29)	GI50 (SW-620)	GI50 (SF-268)	GI50 (SF-539)	GI50 (SNB-19)	GI50 (LOX IMVI)	GI50 (M14)	GI50 (MDA-MB-435)	other results
Cn1cc(-c2csc(-c3cn(C)c4ncccc34)n2)c2ccccc21 [Compound 3d, 1-Methyl-3-[4-(1-methyl-1H-indol-3-yl)-1,3-thiazol-2-yl]-1H-pyrrolo[2,3-b]pyridine]	0.4 µM	0.07 µM	0.45 µM	0.06 µM	0.56 µM	0.91 µM	0.74 µM	0.72 µM	0.3 µM	0.04 µM	0.19 µM	0.37 µM	0.25 µM	0.22 µM	2.44 µM	0.18 µM	0.63 µM	0.54 µM	0.27 µM	0.03 µM	GI50 (SK-MEL-2): 0.58 µM; GI50 (UACC-257): 13 µM; GI50 (IGROV1): 1.33 µM; GI50 (OVCAR-3): 0.1 µM; GI50 (OVCAR-5): 1.41 µM; GI50 (OVCAR-8): 0.66 µM; GI50 (NCI/ADR-RES): 0.09 µM; GI50 (A498): 0.5 µM; GI50 (CAKI-1): 0.38 µM; GI50 (RXF393): 0.33 µM; GI50 (TK-10): 0.6 µM; GI50 (PC-3): 0.46 µM; GI50 (DU-145): 0.39 µM; GI50 (MCF7): 0.33 µM; GI50 (HS 578T): 0.59 µM; GI50 (BT-549): 0.47 µM; GI50 (MDA-MB-468): 0.28 µM; morphological evaluation, AO and EB double staining (HepG2 cells): chromatin condensation and nuclear fragmentation
Cn1cc(-c2nc(-c3c[nH]c4ccccc34)cs2)c2cccnc21 [Compound 3k, 3-[4-(1H-Indol-3-yl)-1,3-thiazol-2-yl]-1-methyl-1H-pyrrolo[2,3-b]pyridine]	0.43 µM	0.12 µM	0.65 µM	0.14 µM	0.71 µM	0.91 µM	0.65 µM	0.67 µM	0.37 µM	0.05 µM	0.19 µM	0.39 µM	0.19 µM	0.3 µM	0.94 µM	0.25 µM	0.64 µM	0.51 µM	0.28 µM	0.04 µM	GI50 (SK-MEL-2): 0.41 µM; GI50 (UACC-257): 14.2 µM; GI50 (IGROV1): 1.18 µM; GI50 (OVCAR-3): 0.25 µM; GI50 (OVCAR-5): 2.39 µM; GI50 (OVCAR-8): 0.82 µM; GI50 (NCI/ADR-RES): 0.15 µM; GI50 (A498): 0.37 µM; GI50 (CAKI-1): 0.44 µM; GI50 (RXF393): 0.52 µM; GI50 (TK-10): 0.99 µM; GI50 (PC-3): 0.56 µM; GI50 (DU-145): 0.56 µM; GI50 (MCF7): 0.37 µM; GI50 (HS 578T): 0.66 µM; GI50 (BT-549): 0.44 µM; GI50 (MDA-MB-468): 0.23 µM; morphological evaluation, AO and EB double staining (HepG2 cells): chromatin condensation and nuclear fragmentation
